Measured values reported in patent US10940201B2, “Nucleic acid derivative having immunostimulatory activity” (Shionogi & Co., Ltd., priority 2015, dated 2021).

Experiments:
antigen-specific CTL = experiment: Antigen-specific CTL inducibility in the absence of a tumor antigen peptide; format: in vivo, mouse
Description: On 7 days after second vaccination, the blood was collected, red blood cells was removed by BD Pharm Lyse (BD pharmingen), and the white blood cells were suspended in FACS buffer (1% fetal bovine serum, 2 mM PBS with EDTA). Anti-mouse CD16/32 monoclonal antibody (BioXcell) was added thereto, and Fc receptor blocking was carried out at 4° C. for 30 minutes. […] Then, staining was carried out with DAPI (Invitrogen) and the cells were washed twice with FACS buffer. It was resuspended in FACS buffer and analyzed by FACS verse Flow Cytometer (BD bioscience) and FAC Suite software (BD bioscience). For analysis, after DAPI negative fraction was gated, white blood cells fraction were provided using forward and side-way scattering as indicators. In the white blood cells fraction, both positive cells of Alexa 647-CD8 and PE-H-2Kb Tetramer were defined as CTLs. CTL ratio in white blood cells was used for evaluation.

[1] = Subcutaneous irritation test in a single dose; format: in vivo, rats; conditions: for Gross: Subcutaneous: White nudules / Histopathological, Subcutaneous: Cyst-like structure accompanied with formulation of fibrous capsule / Gross: Epidermis: Crust / Histopathological, Subcutaneous: Cyst-like structure: number of the observed animals; for Histopathological, Muscle layer: Monocyte infiltration / Histopathological, Subcutaneous: Edema / Histopathological, Subcutaneous: Granulomatous infiltration / Histopathological, Subcutaneous: Neutrophilic infiltration / Histopathological, Subcutaneous: Granulomatous inflammation / Histopathological, Subcutaneous: Monocyte infiltration / Histopathological, Subcutaneous: Necrosis: total score of grades; for Administration site, Gross: Subcutaneous: Red spots, Erythema / Administration site, Gross: Subcutaneous: White accumulation / Administration site, Histopathological: Subcutaneous: Cyst-like structure: number of the observed animals (of 3); for Administration site, Gross: Subcutaneous: Red spots, Erythema / Administration site, Gross: Subcutaneous: White accumulation / Administration site, Histopathological: Subcutaneous: Cyst-like structure / Number of deaths / Number of imminent dissections / Administration site, Histopathological: Muscle layer: Edema / Administration site, Histopathological: Muscle layer: Neutrophilic infiltration / Administration site, Histopathological: Subcutaneous: Bleeding / Administration site, Histopathological: Subcutaneous: Edema / Administration site, Histopathological: Subcutaneous: Neutrophilic infiltration: one day after administration; for Number of deaths / Number of imminent dissections / Administration site, Histopathological: Muscle layer: Edema / Administration site, Histopathological: Muscle layer: Neutrophilic infiltration / Administration site, Histopathological: Subcutaneous: Bleeding / Administration site, Histopathological: Subcutaneous: Edema / Administration site, Histopathological: Subcutaneous: Neutrophilic infiltration: 3 animals; for Administration site, Histopathological: Muscle layer: Edema / Administration site, Histopathological: Muscle layer: Neutrophilic infiltration / Administration site, Histopathological: Subcutaneous: Bleeding / Administration site, Histopathological: Subcutaneous: Edema / Administration site, Histopathological: Subcutaneous: Neutrophilic infiltration: total score (Minimal 1, Mild 2, Moderate 3)
Description: Subcutaneous irritation of a compound of the present invention was evaluated by gross examination and histopathological examination about the skin at necropsy one day, one and four week(s) after subcutaneous administration in a single dose.
The compound of the present invention was subcutaneously administered to the center of back between the shoulder blades of rats. At necropsy one day, one or four week(s) after administration (isoflurane anesthesia, euthanasia by bleeding), skin at the administration site was collected, grossly observed and fixed in 10% neutral buffered formalin solution. The fixed skin was cut out, embedded and put in a thin slice by the usual methods, and Hematoxylin-eosin (HE) stained sections were made. The pathological observers were observed the HE stained sections by an optical microscope, and recorded the histopathological findings. The changes in pathological findings were evaluated in four grades of Minimal; ±, Mild; +, Moderate; 2+ and Marked; 3+. When any grade was not appropriate for the finding, it was recorded as Positive.
SEQ-2, SEQ-49 or an adjuvant of the present invention was dissolved in phosphate buffered saline and administered at 4.71, 15.7 or 47.1 nmol/1 mL/site, respectively.

recombinant PCRV protein = experiment: Inducibility of antibody production in immunization by PCRV antigen vaccine (antibody titer); format: in vivo; conditions: A/J mice, recombinant PCRV protein with adjuvant, intradermal; antiserum Day 33; FIG. 15
Description: Perv nucleotide sequence (SEQ ID NO: 48) derived from Pseudomonas aeruginosa Strain PAO1 was cloned at NdeI-XhoI site in pET21a vector, and Escherichia coli strain BL21 (DE3) was transformed with the prepared plasmid. Strain perV-BL21 (DE3) was cultured in 500 mL of LB/Ampicillin liquid medium at 37° C., and 200 μL of 0.1 M IPTG was added when OD600 became 0.5 to induce expression of recombinant PCRV protein. After culturing at 16° C. for 18 hours, bacteria was separated by a centrifuge, and 15 ml of Buffer A (50 mM Tris-HCl (pH8.0), 0.2M NaCl) comprising 0.5% lysozyme (SIGMA Corporation) was added. After putting at 4° C. for 30 minutes, ultrasonic treatment was carried out. After centrifugation at 12,000 rpm for 10 minutes, soluble fraction was obtained. 1 mL of Ni-NTA agarose gel (QIAGEN) was added to Polyprep column (BIO-RAD Laboratories, Inc) and equilibrated with 10 mL of Buffer A. Soluble fraction was added to the column and passed. […] The resulting recombinant PCRV protein was measured the concentration with BCA assay kit (PIERCE) and kept at −80° C. […]
Antibody titer was measured as blow. […] 20 μL/well of 0.5 N sulfuric acid (Nacalai) was added, and absorbance at 450 nm was measured with a plate reader. The dilution ratio when absorbance at 450 nm is 1.0 was calculated and put as an antibody titer.

[2] = four weeks after administration, 4.71 nmol/site
[3] = four weeks after administration, 15.7 nmol/site
[4] = four weeks after administration, 47.1 nmol/site
[5] = one week after administration, 4.71 nmol/site
[6] = one week after administration, 15.7 nmol/site
[7] = one week after administration, 47.1 nmol/site

## ODN2006 [SEQ-49]
antigen-specific CTL; Table 69, in the absence of a tumor antigen peptide
  Ratio of average value of antigen-specific CTL: Undetectable
antigen-specific CTL; absence of a tumor antigen peptide
  antigen-specific CTL values: undetectable
[1]; [2]
  Number of deaths/imminent dissections: 0/0
  Gross: Subcutaneous: White nudules: 0
  Histopathological, Subcutaneous: Cyst-like structure accompanied with formulation of fibrous capsule: 0
  Histopathological, Muscle layer: Monocyte infiltration: 0
  Histopathological, Subcutaneous: Edema: 0
  Histopathological, Subcutaneous: Granulomatous infiltration: 0
  Histopathological, Subcutaneous: Neutrophilic infiltration: 0
[1]; [3]
  Number of deaths/imminent dissections: 0/0
  Gross: Subcutaneous: White nudules: 0
  Histopathological, Subcutaneous: Cyst-like structure accompanied with formulation of fibrous capsule: 0
  Histopathological, Muscle layer: Monocyte infiltration: 0
  Histopathological, Subcutaneous: Edema: 0
  Histopathological, Subcutaneous: Granulomatous infiltration: 0
  Histopathological, Subcutaneous: Neutrophilic infiltration: 0
[1]; [4]
  Number of deaths/imminent dissections: 0/0
  Gross: Subcutaneous: White nudules: 0
  Histopathological, Subcutaneous: Cyst-like structure accompanied with formulation of fibrous capsule: 0
  Histopathological, Muscle layer: Monocyte infiltration: 0
  Histopathological, Subcutaneous: Edema: 0
  Histopathological, Subcutaneous: Granulomatous infiltration: 0
  Histopathological, Subcutaneous: Neutrophilic infiltration: 0
[1]; 4.71 nmol/site
  Administration site, Gross: Subcutaneous: Red spots, Erythema: 0
  Administration site, Gross: Subcutaneous: White accumulation: 0
  Administration site, Histopathological: Subcutaneous: Cyst-like structure: 0
  Number of deaths: 0/0
  Number of imminent dissections: 0/0
  Administration site, Histopathological: Muscle layer: Edema: 2
  Administration site, Histopathological: Muscle layer: Neutrophilic infiltration: 4
  Administration site, Histopathological: Subcutaneous: Bleeding: 2
  Administration site, Histopathological: Subcutaneous: Edema: 4
  Administration site, Histopathological: Subcutaneous: Neutrophilic infiltration: 6
[1]; 15.7 nmol/site
  Administration site, Gross: Subcutaneous: Red spots, Erythema: 0
  Administration site, Gross: Subcutaneous: White accumulation: 0
  Administration site, Histopathological: Subcutaneous: Cyst-like structure: 0
  Number of deaths: 0/0
  Number of imminent dissections: 0/0
  Administration site, Histopathological: Muscle layer: Edema: 1
  Administration site, Histopathological: Muscle layer: Neutrophilic infiltration: 6
  Administration site, Histopathological: Subcutaneous: Bleeding: 1
  Administration site, Histopathological: Subcutaneous: Edema: 5
  Administration site, Histopathological: Subcutaneous: Neutrophilic infiltration: 6
[1]; 47.1 nmol/site
  Administration site, Gross: Subcutaneous: Red spots, Erythema: 1
  Administration site, Gross: Subcutaneous: White accumulation: 0
  Administration site, Histopathological: Subcutaneous: Cyst-like structure: 0
  Number of deaths: 0/0
  Number of imminent dissections: 0/0
  Administration site, Histopathological: Muscle layer: Edema: 0
  Administration site, Histopathological: Muscle layer: Neutrophilic infiltration: 5
  Administration site, Histopathological: Subcutaneous: Bleeding: 2
  Administration site, Histopathological: Subcutaneous: Edema: 5
  Administration site, Histopathological: Subcutaneous: Neutrophilic infiltration: 6
[1]; [5]
  Number of deaths/imminent dissections: 0/0
  Gross: Epidermis: Crust: 1
  Gross: Subcutaneous: White nudules: 0
  Histopathological, Subcutaneous: Cyst-like structure: 0
  Histopathological, Subcutaneous: Edema: 4
  Histopathological, Subcutaneous: Granulomatous inflammation: 0
  Histopathological, Subcutaneous: Monocyte infiltration: 3
  Histopathological, Subcutaneous: Necrosis: 0
  Histopathological, Subcutaneous: Neutrophilic infiltration: 0
[1]; [6]
  Number of deaths/imminent dissections: 0/0
  Gross: Epidermis: Crust: 1
  Gross: Subcutaneous: White nudules: 0
  Histopathological, Subcutaneous: Cyst-like structure: 0
  Histopathological, Subcutaneous: Edema: 6
  Histopathological, Subcutaneous: Granulomatous inflammation: 0
  Histopathological, Subcutaneous: Monocyte infiltration: 6
  Histopathological, Subcutaneous: Necrosis: 0
  Histopathological, Subcutaneous: Neutrophilic infiltration: 0
[1]; [7]
  Number of deaths/imminent dissections: 0/0
  Gross: Epidermis: Crust: 0
  Gross: Subcutaneous: White nudules: 0
  Histopathological, Subcutaneous: Cyst-like structure: 0
  Histopathological, Subcutaneous: Edema: 5
  Histopathological, Subcutaneous: Granulomatous inflammation: 0
  Histopathological, Subcutaneous: Monocyte infiltration: 8
  Histopathological, Subcutaneous: Necrosis: 0
  Histopathological, Subcutaneous: Neutrophilic infiltration: 0
[1]; rats, single subcutaneous dose, four weeks
  subcutaneous irritation findings four weeks after administration: inflammation was almost recovered
[1]; rats, single subcutaneous dose, one day
  subcutaneous irritation findings one day after administration: acute inflammation, mainly neutrophil infiltration, was observed under the skin
[1]; rats, single subcutaneous dose, one week
  subcutaneous irritation findings one week after administration: inflammation, mainly lymphocyte and macrophage, was observed from subcutaneous to dermis tissue
Recombinant PCRV protein
  antibody titer (dilution ratio when absorbance at 450 nm is 1.0): 5.3×10^5
